Test results from US8580829B2 (Boehringer Ingelheim International GmbH, priority 2010, dated 2013).
Read-outs that look alike come from different tables or passages of the source.

Key:
[1] = system: biomarkers for myocardial infarction risk; conditions: clinical trial; cited from earlier work
[2] = system: synthesis of LTB4 in human whole blood; experiment: human whole blood LTB4 production inhibition assay; format: cell-based; conditions: heparinized human whole blood, calcimycin 20 μM, read-out: hWB LTB4 IC50
Outline: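 Heparinized human whole blood was preincubated with compound for 15 min at 37° C, then stimulated with calcimycin (20 μM final, in PBS pH 7.4) for a further 30 min at 37° C. Plasma LTB4 was quantified by antibody-based homogeneous time-resolved fluorescence.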

[3] = biological target: T1, recombinant human FLAP protein (Homo sapiens, UniProt P20292); experiment: FLAP binding assay (Scintillation Proximity Assay, displacement of [125I]L-691,831); conditions: recombinant human FLAP membranes, [125I]L-691,831 probe; read-out: FLAP SPA IC50
T1 construct: made in house; host or cells: Sf9 insect cells (100,000 x g membrane fraction)
T1 sequence (P20292 1-161): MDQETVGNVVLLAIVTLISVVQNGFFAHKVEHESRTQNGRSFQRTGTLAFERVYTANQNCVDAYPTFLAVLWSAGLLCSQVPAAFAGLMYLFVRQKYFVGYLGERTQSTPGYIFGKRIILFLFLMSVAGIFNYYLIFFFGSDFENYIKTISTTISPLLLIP
Outline: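 WGA scintillation proximity beads were stirred 1 h with 5 μg of FLAP-containing membrane protein. The membranes came from baculovirus Sf9 cells, Dounce-lysed and spun to a 100,000×g pellet in buffer at pH 7.5.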

[4] = system: human glomerulonephritis; conditions: clinical trial; cited from earlier work
[5] = system: apoE/LDL-R double knockout mice; conditions: oral dosing, high-fat diet from 2 months of age to 6 months; cited from earlier work
[6] = system: ApoE−/−xCD4dnTβRII mice; conditions: infusion, treated for four weeks; cited from earlier work

Row | IC50 ([2]; Homo sapiens) | IC50 [3] | IC50 [2] | Structure (SMILES) | also measured
1 | – | – | – | O=C(O)[C@@H](c1ccc(OCc2ccc3ccccc3n2)cc1)C1CCCC1 [DG-031] | effect on biomarkers for myocardial infarction risk [1]: dose-dependent suppression of several biomarkers
2 | 150 nM | 2.6 nM | – | Nc1cnc(-c2ccc(C3(c4noc(-c5cnc(N6CCNCC6)cn5)n4)CCC3)cc2)cn1 [Example 302, 5-(4-{1-[5-(3,4,5,6-Tetrahydro-2H-[1,2′]bipyrazinyl-5′-yl)-[1,2,4]oxadiazol-3-yl]-cyclobutyl}-phenyl)-pyrazin-2-ylamine] | –
3 | 65 nM | 10 nM | – | CN(C)C(=O)Cn1cc(-c2nc(C3(c4ccc(-c5cnc(N)cn5)cc4)CCC3)no2)cn1 [Example 304, 2-[4-(3-{1-[4-(5-Amino-pyrazin-2-yl)-phenyl]-cyclobutyl}-[1,2,4]oxadiazol-5-yl)-pyrazol-1-yl]-N,N-dimethyl-acetamide] | –
4 | 120 nM | 15 nM | – | Cn1cnc(-c2nc(C3(c4ccc(-c5ccc(N)nc5)cc4)CCC3)no2)c1 [Example 305, 5-(4-{1-[5-(1-Methyl-1H-imidazol-4-yl)-[1,2,4]oxadiazol-3-yl]-cyclobutyl}-phenyl)-pyridin-2-ylamine] | –
5 | 580 nM | 12 nM | – | C[C@@H]1CCC[C@H](C)N1c1nc(C2(c3ccc(-c4cnc(N)nc4)cc3)CCC2)no1 [Example 306, 5-(4-{1-[5-(cis-2,6-Dimethyl-piperidin-1-yl)-[1,2,4]oxadiazol-3-yl]-cyclobutyl}-phenyl)-pyrimidin-2-ylamine] | –
6 | – | 3.5 nM | 150 nM | Nc1ncc(-c2ccc(C3(c4noc(-c5cnc(N6CCNCC6)cn5)n4)CCC3)cc2)cn1 [Example 307, 5-(4-{1-[5-(3,4,5,6-Tetrahydro-2H-1,2′-bipyrazinyl-5′-yl)-1,2,4-oxadiazol-3-yl]-cyclobutyl}-phenyl)-pyrimidin-2-ylamine] | –
7 | – | 5 nM | 480 nM | COC(=O)[C@H]1CN(c2cnc(-c3nc(C4(c5ccc(-c6cnc(N)nc6)cc5)CCC4)no3)cn2)CCN1 [Example 308, (R)-5′-(3-{1-[4-(2-Amino-pyrimidin-5-yl)-phenyl]-cyclobutyl}-1,2,4-oxadiazol-5-yl)-3,4,5,6-tetrahydro-2H-1,2′-bipyrazinyl-3-carboxylic acid methyl ester] | –
8 | – | 5.7 nM | 760 nM | COC(=O)[C@@H]1CN(c2cnc(-c3nc(C4(c5ccc(-c6cnc(N)nc6)cc5)CCC4)no3)cn2)CCN1 [Example 309, (S)-5′-(3-{1-[4-(2-Amino-pyrimidin-5-yl)-phenyl]-cyclobutyl}-1,2,4-oxadiazol-5-yl)-3,4,5,6-tetrahydro-2H-1,2′-bipyrazinyl-3-carboxylic acid methyl ester] | –
9 | – | – | – | CC(C)(C)Sc1c(CC(C)(C)C(=O)O)n(Cc2ccc(Cl)cc2)c2ccc(OCc3ccc4ccccc4n3)cc12 [MK-591] | effect on proteinuria [4]: reduce proteinuria
10 | – | – | – | CC(C)c1ccc2c(c1)c(SC(C)(C)C)c(CC(C)(C)C(=O)O)n2Cc1ccc(Cl)cc1 [MK-886] | decrease in plaque coverage in the aorta [5]: 56%; decrease in plaque coverage in the aortic root [5]: 43%; decrease in plaque area in the aortic root [6]: ~40%
